Measured values taken from ChEMBL document CHEMBL5120917, “Ferroptosis Inhibitory Aromatic Abietane Diterpenoids from Ajuga decumbens and Structural Revision of Two 3,4-Epoxy Group-Containing Abietanes” (J Nat Prod, 2022).
Calls of active or inactive are those of the source. No cut-off for these calls is given here.

What was measured:
[1] = Metal chelating activity assessed as Fe2+-compound complex formation by UV-visible spectrophotometry
HT-22 [2] = test: Anti-ferroptotic activity against RSL3-induced ferroptosis in […] HT-22 cells assessed as cell viability measured after 24 hrs by MTT assay; type: functional, cell-based; conditions: Mus musculus, HT-22, 24 h
[3] = Cytotoxicity against […] HT-22 cells assessed as reduction in cell viability measured after 24 hrs by MTT assay; type: toxicity, cell-based; conditions: mouse
[4] = Antioxidant activity assessed as DPPH radical scavenging activity at 100 uM measured for 30 mins by microplate spectrophotometric analysis; type: functional
HT-22 [5] = test: Anti-ferroptotic activity against RSL3-induced ferroptosis in […] HT-22 cells assessed as cell viability at 1 uM measured after 24 hrs by MTT assay; type: functional; conditions: read-out: Activity
HT-22 [6] = test: Reduction in lipid ROS accumulation in RSL-3 treated […] HT-22 cells assessed as fluorescence intensity incubated for 4 hrs by C11-BODIPY staining based flow cytometry analysis; type: functional, cell-based; conditions: Mus musculus, dose 25-100 nM
HT-22 [7] = test: Reduction in cytosolic ROS accumulation in RSL-3 treated […] HT-22 cells assessed as fluorescence intensity incubated for 4 hrs by carboxy-H2DCFDA staining based flow cytometry analysis; type: functional, cell-based; conditions: Mus musculus, dose 25-100 nM
HT-22 [8] = test: Reversal of RSL-3 induced PTGS2 mRNA expression in […] HT-22 cells incubated for 4 hrs by […] analysis; type: functional, cell-based; conditions: Mus musculus, dose 25-100 nM

| SMILES | EC50 (HT-22 [2]) | CC50 at 24 h [3] | Activity [4] | viability at 1 µM (HT-22 [5]) | other results |
| --- | --- | --- | --- | --- | --- |
| CC(=O)N(O)CCCCCNC(=O)CCC(=O)N(O)CCCCCNC(=O)CCC(=O)N(O)CCCCCN | – | – | – | – | Activity [1]: Active |
| CC1=C(C)C2=CC(=O)c3c(c(O)c4oc(C)cc4c3O)[C@@]2(C)CC1 | 526 nM | > 40000 nM | Active | – | – |
| CC1=C(C)C2=CC(=O)c3c(O)c4c(c(O)c3[C@@]2(C)CC1)OC[C@H]4C | 76.2 nM | > 40000 nM | Active | – | – |
| CC1=C(C)C2=CC(=O)c3c(O)c4c(c(O)c3[C@@]2(C)CC1=O)OC[C@H]4C | – | > 40000 nM | Active | < 50% | – |
| Cc1coc2c(O)c3c(c(O)c12)C(=O)C=C1[C@]3(C)CC[C@]2(C)O[C@]12C | 348 nM | > 40000 nM | Active | – | – |
| CC1=C(C)C2=CC(=O)[C@@]34O[C@@]3(C(=O)c3oc(C)cc3C4=O)[C@@]2(C)CC1 | – | > 40000 nM | – | < 50% | – |
| C[C@@H]1COc2c(O)c3c(c(O)c21)C(=O)C=C1[C@]3(C)CC[C@]2(C)O[C@]12C | 406 nM | > 40000 nM | Active | – | – |
| CC1=C(C)C2=CC(=O)c3c(c(O)c4occ(C)c4c3O)[C@@]2(C)CC1 | 56.1 nM | > 40000 nM | Active | – | Activity (HT-22 [6]): Active; Activity (HT-22 [7]): Active; Activity (HT-22 [8]): Active |
| CCOC(=O)c1ccc(NC2CCCCC2)c(N)c1 | 81.2 nM | – | – | – | – |
| C[C@@H]1COc2c(O)c3c(c(O)c21)C(=O)CC1C(C)(C)CCC[C@]31C (some centres not stated) | – | > 40000 nM | – | < 50% | – |
| C=CCc1c(O)c2c(c(O)c1OC)[C@@]1(C)CCC(C)=C(C)C1=CC2=O | 308 nM | > 40000 nM | Active | – | – |
| CC1=C(C)C2=CC(=O)[C@@]34O[C@@]3(C(=O)c3occ(C)c3C4=O)[C@@]2(C)CC1 | – | > 40000 nM | – | < 50% | – |
